According to patent publication US20240199649A1 (Biosplice Therapeutics, Inc., priority 2022, published 2024):

These compounds were tested against recombinant DYRK1A kinase (Homo sapiens (Human), UniProt Q13627) (assay: DYRK1A kinase assay (Ser/Thr 18 peptide Z-lyte FRET assay)). Details: DYRK1A 0.25 μg/mL, ATP 15 μM, Ser/Thr peptide 18 4 μM; one hour at room temperature; 11-point dose-response, duplicate.
Assay type: biochemical
Summary of the method: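 Z-lyte FRET assay on Ser/Thr 18 peptide, kinase activity read as coumarin/fluorescein emission ratio; compounds incubated 1 h at room temperature, then development reagent 1 h, in duplicate. Phosphorylated and unphosphorylated peptide served as controls; IC50 by non-linear regression of dose-response curves.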
For `CNc1nc(N[C@@H]2CCN(C(C)=O)CC2(F)F)nn2ccc(-c3ccc4nc(C)n(CC(F)F)c4n3)c12` [Compound 1023, (R)-1-(4-((5-(3-(2,2-Difluoroethyl)-2-methyl-3H-imidazo[4,5-b]pyridin-5-yl)-4-(methylamino)pyrrolo[2,1-f][1,2,4]triazin-2-yl)amino)-3,3-difluoropiperidin-1-yl)ethan-1-one], the IC50 was 4.7 nM.
With `CNc1nc(N[C@@H]2CCN(C(C)=O)CC2(F)F)nn2ccc(-c3ccc4nc(C)n(CC(F)(F)F)c4n3)c12` [Compound 1024, (R)-1-(3,3-Difluoro-4-((5-(2-methyl-3-(2,2,2-trifluoroethyl)-3H-imidazo[4,5-b]pyridin-5-yl)-4-(methylamino)pyrrolo[2,1-f][1,2,4]triazin-2-yl)amino)piperidin-1-yl)ethan-1-one] the IC50 was 1 nM.
Work on `CNc1nc(NC2CCC(F)(F)CC2)nn2ccc(-c3ccc4nnn(CC(F)F)c4n3)c12` [Compound 1025, N^2-(4,4-Difluorocyclohexyl)-5-(3-(2,2-difluoroethyl)-3H-[1,2,3]triazolo[4,5-b]pyridin-5-yl)-N^4-methylpyrrolo[2,1-f][1,2,4]triazine-2,4-diamine] yielded an IC50 of 10.1 nM.
For `CNc1nc(N[C@@H]2CN(C(C)=O)C[C@@H]2F)nn2ccc(-c3ccc4nnn(CC(F)F)c4n3)c12` [Compound 1026, 1-((3R,4S)-3-((5-(3-(2,2-Difluoroethyl)-3H-[1,2,3]triazolo[4,5-b]pyridin-5-yl)-4-(methylamino)pyrrolo[2,1-f][1,2,4]triazin-2-yl)amino)-4-fluoropyrrolidin-1-yl)ethan-1-one], the IC50 was 0.3 nM.
`CNc1nc(N[C@@H]2CN(C)CC2(F)F)nn2ccc(-c3ccc4nnn(CC(F)F)c4n3)c12` [Compound 1027, (R)—N^2-(4,4-Difluoro-1-methylpyrrolidin-3-yl)-5-(3-(2,2-difluoroethyl)-3H-[1,2,3]triazolo[4,5-b]pyridin-5-yl)-N^4-methylpyrrolo[2,1-f][1,2,4]triazine-2,4-diamine] showed an IC50 of 0.6 nM.
`CNc1nc(N[C@@H]2CN(C3COC3)CC2(F)F)nn2ccc(-c3ccc4nnn(CC(F)F)c4n3)c12` [Compound 1028, (R)—N^2-(4,4-Difluoro-1-(oxetan-3-yl)pyrrolidin-3-yl)-5-(3-(2,2-difluoroethyl)-3H-[1,2,3]triazolo[4,5-b]pyridin-5-yl)-N^4-methylpyrrolo[2,1-f][1,2,4]triazine-2,4-diamine] showed an IC50 of 1.3 nM.
`CNc1nc(N[C@@H]2CCN(C(C)=O)CC2(F)F)nn2ccc(-c3ccc4nnn(CC(F)F)c4n3)c12` [Compound 1029, (R)-1-(4-((5-(3-(2,2-Difluoroethyl)-3H-[1,2,3]triazolo[4,5-b]pyridin-5-yl)-4-(methylamino)pyrrolo[2,1-f][1,2,4]triazin-2-yl)amino)-3,3-difluoropiperidin-1-yl)ethan-1-one] was tested, and the IC50 was 1.3 nM.
With `CNc1nc(N[C@H]2CC[C@](C)(O)CC2)nn2ccc(-c3ccc4nnn(CC(F)(F)F)c4n3)c12` [Compound 1031, (1r,4r)-1-Methyl-4-((4-(methylamino)-5-(3-(2,2,2-trifluoroethyl)-3H-[1,2,3]triazolo[4,5-b]pyridin-5-yl)pyrrolo[2,1-f][1,2,4]triazin-2-yl)amino)cyclohexan-1-ol] the IC50 was 4 nM.
Work on `CNc1nc(N[C@H]2CCN(C(C)=O)C[C@H]2F)nn2ccc(-c3ccc4nnn(CC(F)(F)F)c4n3)c12` [Compound 1032, 1-((3R,4S)-3-Fluoro-4-((4-(methylamino)-5-(3-(2,2,2-trifluoroethyl)-3H-[1,2,3]triazolo[4,5-b]pyridin-5-yl)pyrrolo[2,1-f][1,2,4]triazin-2-yl)amino)piperidin-1-yl)ethan-1-one] yielded an IC50 of 2.8 nM.
With `CNc1nc(N[C@H]2CCN(C3COC3)C[C@H]2F)nn2ccc(-c3ccc4nnn(CC(F)(F)F)c4n3)c12` [Compound 1033, N^2-((3R,4S)-3-Fluoro-1-(oxetan-3-yl)piperidin-4-yl)-N^4-methyl-5-(3-(2,2,2-trifluoroethyl)-3H-[1,2,3]triazolo[4,5-b]pyridin-5-yl)pyrrolo[2,1-f][1,2,4]triazine-2,4-diamine] the IC50 was 2 nM.
In the case of `CNc1nc(N[C@@H]2CCN(C)CC2(F)F)nn2ccc(-c3ccc4nnn(CC(F)(F)F)c4n3)c12` [Compound 1034, (R)—N^2-(3,3-Difluoro-1-methylpiperidin-4-yl)-N^4-methyl-5-(3-(2,2,2-trifluoroethyl)-3H-[1,2,3]triazolo[4,5-b]pyridin-5-yl)pyrrolo[2,1-f][1,2,4]triazine-2,4-diamine], the IC50 is reported as 1.9 nM.
`CNc1nc(N[C@@H]2CCN(C3COC3)CC2(F)F)nn2ccc(-c3ccc4nnn(CC(F)(F)F)c4n3)c12` [Compound 1036, (R)—N^2-(3,3-Difluoro-1-(oxetan-3-yl)piperidin-4-yl)-N^4-methyl-5-(3-(2,2,2-trifluoroethyl)-3H-[1,2,3]triazolo[4,5-b]pyridin-5-yl)pyrrolo[2,1-f][1,2,4]triazine-2,4-diamine] was tested, and the IC50 was 1 nM.
In the case of “N^2-(4,4-Difluorocyclohexyl)-N^4-methyl-5-(3-(2,2,2-trifluoroethyl)-3H-[1,2,3]triazolo[4,5-b]pyridin-5-yl)pyrrolo[2,1-f][1,2,4]triazine-2,4-diamine [Compound 1030]”, the IC50 is reported as 193 nM.
“N^4-Methyl-N^2-(1-(oxetan-3-yl)piperidin-4-yl)-5-(pyrazolo[1,5-a]pyridin-5-yl)pyrrolo[2,1-f][1,2,4]triazine-2,4-diamine [Compound 2]” was tested, and the IC50 was 270 nM.
